According to ChEMBL document CHEMBL1201862, “PubChem BioAssay data set” (2004):
Active and inactive are the calls of the source.

Columns and labels:
[1] = intracellular Trypanosoma cruzi inhibitors in host cells – cell-based, plate reader, cherry-pick samples, set 3, dose response (AID 651818); format: functional;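 also: compounds incubated with infected cells for about four days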
[2] = molecular target: T1, Microphthalmia-associated transcription factor (Homo sapiens, UniProt O75030); test: reducers of TRPM1 reporter luminescence, concentration series – cell-based, SK-MEL-5, cherry-picked, set 3, MITF inhibitor project, dose response (AID 493073); format: functional;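 also: SK-MEL-5 melanoma cells with luciferase driven by the MITF target TRPM1 promoter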
T1 sequence (O75030 whole entry): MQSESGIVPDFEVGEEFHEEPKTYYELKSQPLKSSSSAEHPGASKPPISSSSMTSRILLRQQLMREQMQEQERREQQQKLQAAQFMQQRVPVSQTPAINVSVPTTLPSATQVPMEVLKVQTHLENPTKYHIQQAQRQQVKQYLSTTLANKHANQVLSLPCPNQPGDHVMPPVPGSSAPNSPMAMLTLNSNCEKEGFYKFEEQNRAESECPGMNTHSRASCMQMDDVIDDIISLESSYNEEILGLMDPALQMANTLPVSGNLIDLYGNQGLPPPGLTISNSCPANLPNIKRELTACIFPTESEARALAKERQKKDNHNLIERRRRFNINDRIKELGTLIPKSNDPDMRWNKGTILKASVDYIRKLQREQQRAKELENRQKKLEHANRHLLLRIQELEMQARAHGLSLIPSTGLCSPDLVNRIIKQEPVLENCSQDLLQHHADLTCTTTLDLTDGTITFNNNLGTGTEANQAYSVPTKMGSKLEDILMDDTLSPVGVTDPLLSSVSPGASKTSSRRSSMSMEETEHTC

[3] = reduction of Shn3 3'UTR-driven luciferase in osteoblasts – cell-based, Clone20 osteoblasts, firefly luciferase, cherry-picked, dose response (AID 624132); format: functional;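 also: firefly luciferase luminescence from reporter carrying the Shn3 3'UTR in osteoblasts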
[4] = loss of viability in HepG2 cells – cell-based, CellTiter-Glo, cherry-picked, cytotoxicity control for Shn3 inhibitor project, dose response (AID 624134); format: functional
[5] = non-specific 3'UTR reporter inhibition in Clone20-Shn3RL – cell-based, Renilla luciferase, cherry-picked, counter-screen for Shn3 inhibitor project, dose response (AID 624133); format: functional
[6] = general mammalian cell viability loss – inhibitor set, cherry-pick, set 2, cytotoxicity control for miR-122 modulator project, dose response (AID 720697); format: functional, cell-based
[7] = HPDE-C7 pancreatic duct cell viability loss – fluorescence, HTS (AID 430); format: functional, cell-based; details: Homo sapiens
[8] = viability loss of HPDE-C7K cells – cell-based, fluorescence, HTS, primary screen (AID 431); format: functional; details: Homo sapiens
[9] = molecular target: T2, DNA repair and recombination protein RAD54-like (Homo sapiens, UniProt Q92698); test: RAD54 Holliday junction migration blockers – biochemical, fluorescence, cherry-picked samples, dose series, confirmation (AID 651657); format: functional
T2 sequence (Q92698 whole entry): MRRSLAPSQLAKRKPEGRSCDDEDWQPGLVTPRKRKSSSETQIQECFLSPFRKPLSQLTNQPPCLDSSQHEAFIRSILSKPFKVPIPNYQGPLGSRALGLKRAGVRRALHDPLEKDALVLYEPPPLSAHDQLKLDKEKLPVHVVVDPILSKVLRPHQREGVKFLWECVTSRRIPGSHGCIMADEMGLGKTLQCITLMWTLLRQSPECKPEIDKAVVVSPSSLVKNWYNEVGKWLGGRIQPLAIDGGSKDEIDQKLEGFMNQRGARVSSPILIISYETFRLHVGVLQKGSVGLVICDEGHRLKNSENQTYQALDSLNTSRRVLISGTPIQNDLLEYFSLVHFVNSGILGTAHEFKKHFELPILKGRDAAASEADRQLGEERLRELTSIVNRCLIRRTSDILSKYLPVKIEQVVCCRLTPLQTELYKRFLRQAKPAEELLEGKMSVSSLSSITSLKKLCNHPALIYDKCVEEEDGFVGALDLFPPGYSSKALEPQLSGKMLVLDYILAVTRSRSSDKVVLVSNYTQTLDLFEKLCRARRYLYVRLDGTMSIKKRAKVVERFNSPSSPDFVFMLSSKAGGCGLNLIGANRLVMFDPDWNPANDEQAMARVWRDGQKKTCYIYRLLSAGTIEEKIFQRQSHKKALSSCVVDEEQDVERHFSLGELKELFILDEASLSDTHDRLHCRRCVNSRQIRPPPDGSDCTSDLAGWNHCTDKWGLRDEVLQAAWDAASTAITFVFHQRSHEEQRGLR

INS1 = test: INS-1E survival protection against cytokine death – cell-based, luminescence, retest, dose response (AID 449756); format: functional; details: Rattus norvegicus, INS1;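 also: cell death triggered by IL-1 beta plus TNF-alpha plus IFN-gamma mixture; protective hits raise ATP signal compared with cytokine alone wells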
[10] = HEK-293T viability loss after treatment – luminescence, T-cell screen hits, cytotoxicity control for TCR NF-kB inhibitor project, dose response (AID 489026); format: functional, cell-based;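 also: cells exposed to compound about 14 hours before the viability readout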
[11] = HIV-1 Vif–A3G interaction blockers – biochemical, TR-FRET, GST-Vif 1-94, biotin-A3G peptide, dose response retest, primary screen (AID 1117319); format: functional;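 also: TR-FRET signal of purified GST-Vif binding a biotinylated A3G peptide; inhibitors lower the FRET signal by blocking Vif and A3G binding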

With `Cc1cc(C(=O)Nc2cccc3c2O[C@H](CN(C)Cc2ccc(C(=O)Nc4ccccc4N)cc2)[C@H](C)CN([C@H](C)CO)C3=O)n(C)n1` the AC50 [1] was 3.15 µM (active).

With `Cc1ccc(C(O)(c2ccc(C)c(C)c2)C2CN3CCC2CC3)cc1C` (stereo not given) the AC50 [2] was 10.1 µM (active).

With `O=C1CCCN2N=C(SCC(=O)Nc3cccc(C(F)(F)F)c3)SC2=N1` the AC50 [3] was 4.37 µM (active), the AC50 [4] was 5.46 µM (active) and the AC50 [5] was 2.95 µM (active).

In the case of `Cc1cc(C(=O)Nc2ccc3c(c2)C(=O)N(C)[C@H]2CC[C@H](CC(=O)N[C@@H](C)c4ccccc4)O[C@H]2CO3)no1`, the AC50 [6] is reported as 0.478 µM (active).

In the case of `CCOCCCn1c(C)nc2c(c1=O)c1nc3ccccc3nc1n2CCC1=CCCCC1`, the EC50 [7] is reported as > 20 µM (not active) and the EC50 [8] is reported as > 20 µM (not active).

For `CCn1c(=N)c(C(=O)NC)cc2c(=O)n3cccc(C)c3nc21`, the AC50 [9] was 19.9 µM (active).

For `COc1ccc(CC(=O)Nc2nc(-c3ccc(F)c(F)c3)cs2)cc1OC`, the AC50 (INS1) was 6.65 µM (active) and the IC50 [10] was 51.3 µM (inactive).

In the case of `C[C@H](CO)N1C[C@H](C)[C@H](CN(C)C(=O)Nc2cccc3ccccc23)Oc2c(NC(=O)Nc3ccc4c(c3)OCO4)cccc2C1=O`, the AC50 [1] is reported as 11.9 µM (active).

With `CC(=O)Nc1ccc(S(=O)(=O)Nc2nnc(C(C)C)s2)cc1` the IC50 [11] was > 100 µM (active).

In the case of `Cc1cccc(NS(=O)(=O)c2ccc(-c3cnc(C4CC4)o3)cc2)c1`, the IC50 [10] is reported as 67 µM (inactive).

For `COc1cc2nc(C3CCC3)n(NC(=O)C3CCCC(OC)C3)c(=O)c2cc1OC` (stereo not given), the AC50 [6] was 6.2 µM (active).

With `C[C@@H]1CCCCO[C@H](CN(C)C(=O)Nc2ccc(C(F)(F)F)cc2)[C@@H](C)CN([C@H](C)CO)C(=O)c2cc(NC(=O)Nc3ccc(F)cc3)ccc2O1` the AC50 [1] was 1.35 µM (active).

With `C/C=C/c1ccc([C@H]2[C@@H](CO)N[C@@H]2CN(C(=O)c2ccccc2F)C(C)C)cc1` the AC50 [6] was 2.45 µM (active).

For `CCOC(=O)c1[nH]c(C)c(C(=O)OCC(=O)NC(C)c2ccc(F)cc2)c1C` (stereo not given), the IC50 [10] was > 80 µM (inactive).

For `CCOC(=O)c1[nH]c(C=O)c(C(=O)OCC)c1C`, the IC50 [10] was > 80 µM (inactive).

In the case of `O=C(CCN1C(=O)c2ccccc2C1=O)NCc1ccco1`, the IC50 [11] is reported as > 100 µM (active).
